Laboratory results reported in PubChem BioAssay AID330 (DTP/NCI, 2004).
“And” between values parts separate entries of the source, which are not always exact repeats. Equal values may be shown once. Toxic doses and inconclusive results are not listed. Rule for the calls: active = survival T/C of 150% or more; inactive = T/C below 125% in these data.

Test system: P388 leukemia ip, CD2F1 mice, survival T/C
Assay: NCI In Vivo Anticancer Drug Screen. Data for tumor model P388 Leukemia (intraperitoneal) in CD2F1 (CDF1) mice
Conditions: endpoint: median survival time, higher = longer survival
Outline: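 Mice carrying the transplanted tumor received test compound or vehicle. Survival was recorded in each group, and the value is the treated-group measurement divided by that of the vehicle-treated control group.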

[1] = dose: 50.0 mg/kg/injection, schedule: Q01DX009 (ip), vehicle: saline
[2] = dose: 100.0 mg/kg/injection, schedule: Q01DX009 (ip), vehicle: saline
[3] = dose: 200.0 mg/kg/injection, schedule: Q01DX009 (ip), vehicle: saline
[4] = dose: 50.0 mg/kg/injection, schedule: Q01DX005 (ip), vehicle: saline with Tween-80
[5] = dose: 100.0 mg/kg/injection, schedule: Q01DX005 (ip), vehicle: saline with Tween-80
[6] = dose: 200.0 mg/kg/injection, schedule: Q01DX005 (ip), vehicle: saline with Tween-80
[7] = dose: 50.0 mg/kg/injection, schedule: Q01DX005 (ip), vehicle: Klucel (hydroxypropylcellulose) (HPC)
[8] = dose: 100.0 mg/kg/injection, schedule: Q01DX005 (ip), vehicle: Klucel (hydroxypropylcellulose) (HPC)
[9] = dose: 200.0 mg/kg/injection, schedule: Q01DX005 (ip), vehicle: Klucel (hydroxypropylcellulose) (HPC)
[10] = dose: 12.5 mg/kg/injection, schedule: Q01DX009 (ip), vehicle: saline with Tween-80
[11] = dose: 25.0 mg/kg/injection, schedule: Q01DX009 (ip), vehicle: saline with Tween-80
[12] = dose: 50.0 mg/kg/injection, schedule: Q01DX009 (ip), vehicle: saline with Tween-80
[13] = dose: 100.0 mg/kg/injection, schedule: Q01DX009 (ip), vehicle: saline with Tween-80
[14] = dose: 50.0 mg/kg/injection, schedule: Q01DX009 (ip), vehicle: Klucel (hydroxypropylcellulose) (HPC)
[15] = dose: 200.0 mg/kg/injection, schedule: Q01DX009 (ip), vehicle: saline with Tween-80
[16] = dose: 60.0 mg/kg/injection, schedule: Q01DX005 (ip), vehicle: saline with Tween-80

Measured: T/C

c1ccc2c(c1)nnc1ccccc12
inactive: dose: 50.0 mg/kg/injection, schedule: Q01DX005 (ip), vehicle: Klucel + Tween-80 102 % of control | dose: 100.0 mg/kg/injection, schedule: Q01DX005 (ip), vehicle: Klucel + Tween-80 96 % of control | dose: 200.0 mg/kg/injection, schedule: Q01DX005 (ip), vehicle: Klucel + Tween-80 102 % of control

c1ccc(C(Sc2ncnc3nc[nH]c23)c2ccccc2)cc1
inactive: [1] 102 % of control | [2] 102 % of control | [3] 111 % of control

COc1cc(C)nc2ccc(Cc3ccc4nc(C)cc(OC)c4c3)cc12
inactive: dose: 25.0 mg/kg/injection, schedule: Q04DX003 (ip), vehicle: saline with Tween-80 94 % of control | dose: 50.0 mg/kg/injection, schedule: Q04DX003 (ip), vehicle: saline with Tween-80 91 % of control

Cc1cc(=O)n2c(n1)sc1cc(Cl)ccc12
inactive: dose: 18.75 mg/kg/injection, schedule: Q04DX002 (ip), vehicle: Klucel (hydroxypropylcellulose) (HPC) 102 % of control | dose: 37.5 mg/kg/injection, schedule: Q04DX002 (ip), vehicle: Klucel (hydroxypropylcellulose) (HPC) 93 % of control | dose: 75.0 mg/kg/injection, schedule: Q04DX002 (ip), vehicle: Klucel (hydroxypropylcellulose) (HPC) 101 % of control

CCN1C(=O)C=CC1=O
inactive: dose: 1.56 mg/kg/injection, schedule: Q04DX003 (ip), vehicle: saline with Tween-80 109 % of control and 98 % of control | dose: 3.12 mg/kg/injection, schedule: Q04DX003 (ip), vehicle: saline with Tween-80 99 % of control and 96 % of control | dose: 6.25 mg/kg/injection, schedule: Q04DX003 (ip), vehicle: saline with Tween-80 99 % of control and 95 % of control

CCC1(c2ccnc3ccccc23)C(=O)OC(C)(C)OC1=O
inactive: dose: 50.0 mg/kg/injection, schedule: Q01DX009 (ip), vehicle: distilled water + alcohol 99 % of control | dose: 100.0 mg/kg/injection, schedule: Q01DX009 (ip), vehicle: distilled water + alcohol 98 % of control | dose: 200.0 mg/kg/injection, schedule: Q01DX009 (ip), vehicle: distilled water + alcohol 87 % of control

CCCCN(CCCC)CCNc1ccc(C)c2sc3cc(C)ccc3c(=O)c12
inactive: [4] 116 % of control | [5] 102 % of control | [6] 98 % of control

Cn1c2ccc(F)cc2c(=O)c2c(O)cc3c(c21)C=CC(C)(C)O3
inactive: [7] 100 % of control | [8] 102 % of control | [9] 94 % of control

CCOc1cc2c(cc1Cc1ccc3c(c1)OCO3)OCO2
inactive: [4] 97 % of control | [5] 107 % of control | [6] 107 % of control

O=S(=O)(O)c1ccc2cc3nn(-c4ccc(/C=C/c5ccc(-n6nc7cc8ccc(S(=O)(=O)O)cc8cc7n6)cc5S(=O)(=O)O)c(S(=O)(=O)O)c4)nc3cc2c1
inactive: [1] 97 % of control | [2] 97 % of control

Cc1c(C=[N+]2CCCCC2)c2ccccc2n1C
inactive: dose: 6.25 mg/kg/injection, schedule: Q01DX009 (ip), vehicle: saline with Tween-80 100 % of control | [10] 109 % of control | [11] 109 % of control and 120 % of control | [12] 104 % of control and 118 % of control | [13] 103 % of control

O=C(O)c1cccc([N+](=O)[O-])c1O
inactive: [14] 102 % of control | dose: 100.0 mg/kg/injection, schedule: Q01DX009 (ip), vehicle: Klucel (hydroxypropylcellulose) (HPC) 105 % of control | dose: 200.0 mg/kg/injection, schedule: Q01DX009 (ip), vehicle: Klucel (hydroxypropylcellulose) (HPC) 101 % of control | dose: 400.0 mg/kg/injection, schedule: Q01DX009 (ip), vehicle: Klucel (hydroxypropylcellulose) (HPC) 100 % of control

CCN(CC)C(=O)C1CN2CCc3cc(OC)c(OC)cc3C2CC1O (stereo not drawn)
inactive: [7] 104 % of control and 108 % of control | [8] 106 % of control and 109 % of control | [9] 123 % of control

C[n+]1ccccc1NC(=O)c1ccccc1
inactive: dose: 61.5 mg/kg/injection, schedule: Q01DX001 (ip), vehicle: saline 100 % of control | dose: 123.0 mg/kg/injection, schedule: Q01DX001 (ip), vehicle: saline 104 % of control | dose: 246.0 mg/kg/injection, schedule: Q01DX001 (ip), vehicle: saline 104 % of control

Clc1ccc(Cl)c(N=NNc2cc(Cl)ccc2Cl)c1
inactive: [10] 96 % of control | [11] 99 % of control | dose: 25.0 mg/kg/injection, schedule: Q01DX009 (ip), vehicle: saline 98 % of control | [12] 97 % of control | [1] 94 % of control | [13] 98 % of control | [2] 92 % of control | dose: 100.0 mg/kg/injection, schedule: Q04DX003 (ip), vehicle: saline with Tween-80 104 % of control | [15] 88 % of control | [3] 92 % of control | dose: 200.0 mg/kg/injection, schedule: Q04DX003 (ip), vehicle: saline with Tween-80 104 % of control | dose: 400.0 mg/kg/injection, schedule: Q04DX003 (ip), vehicle: saline with Tween-80 95 % of control

c1ccc(N=c2nc(Nc3ccccc3)ss2)cc1
inactive: [4] 94 % of control | [5] 86 % of control | [6] 90 % of control

Oc1cc2c(cc1C(c1ccc(F)cc1)N1CCCCC1)OCO2 (stereo not drawn)
inactive: [16] 111 % of control | dose: 120.0 mg/kg/injection, schedule: Q01DX005 (ip), vehicle: saline with Tween-80 116 % of control | dose: 240.0 mg/kg/injection, schedule: Q01DX005 (ip), vehicle: saline with Tween-80 115 % of control

N#CSc1c(-c2ccccc2)c2c(N)[nH]c(=O)nc2[nH]c1=O
inactive: dose: 15.0 mg/kg/injection, schedule: Q01DX005 (ip), vehicle: saline with Tween-80 107 % of control | dose: 30.0 mg/kg/injection, schedule: Q01DX005 (ip), vehicle: saline with Tween-80 99 % of control | [16] 90 % of control

NC(=O)c1cc([N+](=O)[O-])cnc1Sc1ncccn1
inactive: dose: 12.5 mg/kg/injection, schedule: Q01DX009 (ip), vehicle: Klucel (hydroxypropylcellulose) (HPC) 110 % of control | dose: 25.0 mg/kg/injection, schedule: Q01DX009 (ip), vehicle: Klucel (hydroxypropylcellulose) (HPC) 118 % of control | [14] 111 % of control and 114 % of control

O=C1OC(c2ccccc2)(c2ccccc2)CC1CC(O)(c1ccccc1)c1ccccc1 (stereo not drawn)
inactive: [4] 98 % of control | [5] 90 % of control

CC(C)NCC(O)c1ccc(NS(C)(=O)=O)cc1 (stereo not drawn)
inactive: dose: 50.0 mg/kg/injection, schedule: Q01DX005 (ip), vehicle: saline 108 % of control | dose: 100.0 mg/kg/injection, schedule: Q01DX005 (ip), vehicle: saline 100 % of control | dose: 200.0 mg/kg/injection, schedule: Q01DX005 (ip), vehicle: saline 104 % of control

COC(C(OC)N1CCOCC1)N1CCOCC1 (stereo not drawn)
inactive: [12] 100 % of control | [13] 104 % of control | [15] 113 % of control

O=C1c2ccccc2C2NCCCN12 (stereo not drawn)
inactive: dose: 50.0 mg/kg/injection, schedule: Q01DX009 (ip), vehicle: suspension in saline 93 % of control | dose: 100.0 mg/kg/injection, schedule: Q01DX009 (ip), vehicle: suspension in saline 102 % of control | dose: 200.0 mg/kg/injection, schedule: Q01DX009 (ip), vehicle: suspension in saline 107 % of control | dose: 400.0 mg/kg/injection, schedule: Q01DX009 (ip), vehicle: suspension in saline 111 % of control

CC(/C=C/c1ccccc1)=Nc1ccc(Cl)cc1
inactive: [11] 100 % of control and 107 % of control | [12] 100 % of control and 101 % of control and 107 % of control | [13] 100 % of control and 101 % of control | [15] 98 % of control
